Assay results as given in ChEMBL document CHEMBL1125278, “Novel cerebroprotective agents with central nervous system stimulating activity. 2. Synthesis and pharmacology of the 1-(acylamino)-7-hydroxyindan derivatives” (1991).
Values joined by “and” are separate entries in the source; they are usually repeats but may differ in a detail not shown here. Equal values may be shown once.

Assays:
Type in all cases: functional
[1] = system: Mus musculus; assay: Time of recovery of spontaneous movement (SMT) in seconds was measured after administration of 1 mg/kg orally in mice for the promotional effect on recovery from coma.; settings: route oral
[2] = system: Mus musculus; assay: Time of recovery of righting reflux (RRT) in seconds was measured after administration of 0.3 mg/kg orally in mice for the promotional effect on recovery from coma.; settings: route oral
[3] = system: Mus musculus; assay: Time of recovery of spontaneous movement (SMT) in seconds was measured after administration of 0.3 mg/kg orally in mice for the promotional effect on recovery from coma.; settings: route oral
[4] = system: Mus musculus; assay: Spontaneous movement (SMT) in seconds, was measured after oral administration of 30 mg/kg in mice to test for promoting effects on recovery from coma.
[5] = system: Mus musculus; assay: Time of recovery of righting reflux (RRT) in seconds was measured after oral administration of 30 mg/kg in mice for the promotional effect on recovery from coma.
[6] = system: Mus musculus; assay: Time of recovery of righting reflux (RRT) in seconds was measured after administration of 3 mg/kg orally in mice for the promotional effect on recovery from coma.; settings: route oral
[7] = system: Mus musculus; assay: Time of recovery of spontaneous movement (SMT) in seconds was measured after administration of 3 mg/kg orally in mice for the promotional effect on recovery from coma.; settings: route oral
[8] = system: Mus musculus; assay: Antihypoxic effect by the survival time (SVT) in mice at a dose of 3 mg/kg administered intraperitoneally.; settings: route intraperitoneal
[9] = system: Mus musculus; assay: Compound was tested for the anesthetic effect and the sleeping time (ST) was recorded at a dose of 3 mg/kg administered orally.
[10] = system: Mus musculus; assay: Antihypoxic effect by the ratio of survival time (SVT) of test mice to that of control group at a dose of 10 mg/kg administered intraperitoneally.; settings: route intraperitoneal
[11] = system: Mus musculus; assay: Time of recovery of righting reflux (RRT) in seconds was measured after administration of 1 mg/kg orally in mice for the promotional effect on recovery from coma.; settings: route oral
[12] = system: Mus musculus; assay: Antihypoxic effect tested by the ratio of survival time (SVT) of test mice to that of control group, dosed intraperitoneally at 30 mg/kg; settings: route intraperitoneal, 30 mg/kg
[13] = system: Mus musculus; assay: Antihypoxic effect tested by the ratio of survival time (SVT) of test mice to that of control group, dosed orally 30 mg/kg; settings: route oral
[14] = system: Mus musculus; assay: Compound was tested for the anesthetic effect and the sleeping time (ST) was recorded at a dose of 10 mg/kg administered orally.
[15] = system: Mus musculus; assay: Compound was tested for the anesthetic effect and the sleeping time (ST) was recorded at a dose of 1 mg/kg administered orally.
[16] = system: Mus musculus; assay: Time of recovery of spontaneous movement (SMT) in seconds was measured after administration of 10 mg/kg orally in mice for the promotional effect on recovery from coma.; settings: route oral
[17] = system: Mus musculus; assay: Time of recovery of righting reflux (RRT) in seconds was measured after oral administration of 100 mg/kg orally in mice for the promotional effect on recovery from coma.
[18] = system: Mus musculus; assay: Time of recovery of righting reflux (RRT) in seconds was measured after oral administration of 10 mg/kg orally in mice for the promotional effect on recovery from coma.
[19] = system: Mus musculus; assay: Time of recovery of righting reflux (RRT) in seconds was measured after oral administration of 30 mg/kg orally in mice for the promotional effect on recovery from coma.
[20] = system: Mus musculus; assay: Time of recovery of spontaneous movement (SMT) in seconds was measured after administration of 100 mg/kg orally in mice for the promotional effect on recovery from coma.; settings: route oral
[21] = system: Mus musculus; assay: Compound was tested for the anesthetic effect and the sleeping time (ST) was recorded at a dose of 10 mg/kg administered intraperitoneally.; settings: route intraperitoneal
[22] = system: Mus musculus; assay: Compound was tested for the anesthetic effect and the sleeping time (ST) was recorded at a dose of 30 mg/kg administered intraperitoneally.; settings: route intraperitoneal
[23] = system: Mus musculus; assay: Compound was tested for the anesthetic effect and the sleeping time (ST) was recorded at a dose of 3 mg/kg administered intraperitoneally.; settings: route intraperitoneal
[24] = system: Mus musculus; assay: Antihypoxic effect by the survival time (SVT) in mice at a dose of 30 mg/kg administered orally.
[25] = system: Mus musculus; assay: Antihypoxic effect by the ratio of survival time (SVT) of test mice to that of control group at a dose of 100 mg/kg administered intraperitoneally.; settings: route intraperitoneal

COc1cccc(N2CCN(CC(=O)NC3c4c(O)c(C)cc(C)c4CC3(C)C)CC2)c1 (stereo not drawn)
SMT [1]: 56.2 s
RRT [2]: 72.7 s
SMT [3]: 66.5 s
SMT [4]: 46 s
RRT [5]: 48.3 s
RRT [6]: 43.6 s
SMT [7]: 45.3 s
SVT [8]: 153.5%
ST [9]: 84.8 s
SVT [10]: 176.4%
RRT [11]: 58 s
SVT [12]: 169.1% and 206.7%
SVT [13]: 135.4%
ST [14]: 71.4 s
ST [15]: 92.7 s

Cc1cc(C)c2c(c1O)C(NC(=O)CN1CCN(C)CC1)C(C)(C)C2 (stereo not drawn)
SMT [16]: 60.9 s
SMT ([4]; 30 mg/kg): 43.1 s and 49.8 s
RRT [5]: 54.9 s
RRT [17]: 25.8 s
RRT [18]: 61.2 s
RRT [19]: 45.7 s
SMT [20]: 36.2 s
SVT [8]: 93%
SVT [10]: 92.5%
SVT [12]: 145.6% and 145.2%
SVT [13]: 86.4%
ST [21]: 78.8 s
ST [22]: 84.3 s
ST [23]: 92.7 s

Cc1cc(C)c2c(c1O)C(NC(=O)CN1CCN(c3cccc(Cl)c3)CC1)CC2 (stereo not drawn)
SMT [4]: 77.4 s
RRT [5]: 72.1 s
SVT [24]: 99.2%
SVT [25]: 168.9%
